Results taken from PubChem BioAssay (NCI).
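Interpolation was linear, between the two tested concentrations surrounding the appropriate level; five concentrations were tested over 48 hours in 96-well plates. GI50 marks 50% less growth. TGI is the concentration that stops growth completely.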

Tests used:
Assay in all cases: NCI tumour cell line growth inhibition, 48 h
[1] = system: SK-MEL-28 melanoma
[2] = system: OVCAR-3 ovarian
[3] = system: EKVX NSCLC
[4] = system: CCRF-CEM leukemia
[5] = system: PC-3 prostate
[6] = system: HS 578T breast
[7] = system: SK-MEL-5 melanoma
[8] = system: RPMI-8226 leukemia
[9] = system: OVCAR-4 ovarian
[10] = system: SNB-75 CNS
[11] = system: 786-0 renal
[12] = system: HCC-2998 colon
[13] = system: KM12 colon
[14] = system: HCT-15 colon
[15] = system: LOX IMVI melanoma
[16] = system: MOLT-4 leukemia
[17] = system: SK-MEL-2 melanoma
[18] = system: M14 melanoma
[19] = system: NCI-H460 lung
[20] = system: SF-295 CNS
[21] = system: COLO 205 colon
[22] = system: HOP-92 NSCLC
[23] = system: DU-145 prostate
[24] = system: MALME-3M melanoma
[25] = system: HL-60(TB) leukemia
[26] = system: MCF7 breast
[27] = system: NCI-H226 lung
[28] = system: K-562 leukemia
[29] = system: SF-268 CNS
[30] = system: A498 renal
[31] = system: UO-31 renal
[32] = system: RXF 393 renal
[33] = system: NCI-H23 lung
[34] = system: HCT-116 colon
[35] = system: SN12C renal
[36] = system: NCI/ADR-RES ovarian
[37] = system: MDA-MB-435
[38] = system: OVCAR-5 ovarian
[39] = system: SNB-19 CNS
[40] = system: NCI-H522 lung
[41] = system: A549 NSCLC
[42] = system: SW-620 colon
[43] = system: HT29 colon
[44] = system: U251 CNS
[45] = system: BT-549 breast
[46] = system: HOP-62 NSCLC
[47] = system: SF-539 CNS
[48] = system: T-47D breast
[49] = system: SR leukemia
[50] = system: CAKI-1 renal
[51] = system: UACC-62 melanoma
[52] = system: UACC-257 melanoma
[53] = system: TK-10 renal
[54] = system: MDA-MB-231 breast
[55] = system: SK-OV-3 ovarian
[56] = system: IGROV1 ovarian
[57] = system: OVCAR-8 ovarian
[58] = system: ACHN renal

Q: With `NS(=O)(=O)c1ccc(Nc2ncc(-c3ccccc3)o2)cc1` as the compound, how does the GI50 [1] read?
A: Its GI50 is > 25 µM.

Q: And the TGI [1]?
A: The TGI was > 25 µM.

Q: What about the GI50 [2] of the same compound?
A: The GI50 was > 25 µM.

Q: And the TGI [2]?
A: The TGI was > 25 µM.

Q: And the GI50 [3]?
A: The GI50 was > 25 µM.

Q: And the TGI [3]?
A: The TGI was > 25 µM.

Q: And the GI50 [4]?
A: The GI50 was > 25 µM.

Q: What about the TGI [4] of the same compound?
A: Its TGI is > 25 µM.

Q: And the GI50 [5]?
A: The GI50 was > 25 µM.

Q: And the TGI [5]?
A: Its TGI is > 25 µM.

Q: And the GI50 [6]?
A: The GI50 was 20.5 µM.

Q: And the TGI [6]?
A: The TGI was > 25 µM.

Q: And the GI50 [7]?
A: The GI50 was > 25 µM.

Q: What about the TGI [7] of the same compound?
A: The TGI was > 25 µM.

Q: What about the GI50 [8] of the same compound?
A: The GI50 was > 25 µM.

Q: What about the TGI [8] of the same compound?
A: Its TGI is > 25 µM.

Q: What about the GI50 [9] of the same compound?
A: The GI50 was > 25 µM.

Q: And the TGI [9]?
A: Its TGI is > 25 µM.

Q: And the GI50 [10]?
A: Its GI50 is > 9.68 µM.

Q: What about the TGI [10] of the same compound?
A: Its TGI is > 25 µM.

Q: And the GI50 [11]?
A: Its GI50 is > 25 µM.

Q: And the TGI [11]?
A: Its TGI is > 25 µM.

Q: And the GI50 [12]?
A: Its GI50 is > 25 µM.

Q: And the TGI [12]?
A: The TGI was > 25 µM.

Q: What about the GI50 [13] of the same compound?
A: The GI50 was > 25 µM.

Q: And the TGI [13]?
A: Its TGI is > 25 µM.

Q: What about the GI50 [14] of the same compound?
A: Its GI50 is > 25 µM.

Q: And the TGI [14]?
A: Its TGI is > 25 µM.

Q: What about the GI50 [15] of the same compound?
A: Its GI50 is > 25 µM.

Q: What about the TGI [15] of the same compound?
A: Its TGI is > 25 µM.

Q: And the GI50 [16]?
A: Its GI50 is > 25 µM.

Q: What about the TGI [16] of the same compound?
A: Its TGI is > 25 µM.

Q: What about the GI50 [17] of the same compound?
A: Its GI50 is > 25 µM.

Q: And the TGI [17]?
A: The TGI was > 25 µM.

Q: What about the GI50 [18] of the same compound?
A: The GI50 was > 25 µM.

Q: And the TGI [18]?
A: Its TGI is > 25 µM.

Q: And the GI50 [19]?
A: Its GI50 is > 25 µM.

Q: And the TGI [19]?
A: The TGI was > 25 µM.

Q: And the GI50 [20]?
A: The GI50 was > 25 µM.

Q: What about the TGI [20] of the same compound?
A: Its TGI is > 25 µM.

Q: What about the GI50 [21] of the same compound?
A: Its GI50 is > 23.7 µM.

Q: And the TGI [21]?
A: Its TGI is > 25 µM.

Q: What about the GI50 [22] of the same compound?
A: Its GI50 is > 25 µM.

Q: And the TGI [22]?
A: Its TGI is > 25 µM.

Q: What about the GI50 [23] of the same compound?
A: Its GI50 is > 25 µM.

Q: What about the TGI [23] of the same compound?
A: The TGI was > 25 µM.

Q: What about the GI50 [24] of the same compound?
A: The GI50 was > 25 µM.

Q: And the TGI [24]?
A: The TGI was > 25 µM.

Q: What about the GI50 [25] of the same compound?
A: Its GI50 is > 25 µM.

Q: What about the TGI [25] of the same compound?
A: Its TGI is > 25 µM.

Q: And the GI50 [26]?
A: Its GI50 is > 25 µM.

Q: And the TGI [26]?
A: Its TGI is > 25 µM.

Q: What about the GI50 [27] of the same compound?
A: Its GI50 is > 25 µM.

Q: What about the TGI [27] of the same compound?
A: Its TGI is > 25 µM.

Q: And the GI50 [28]?
A: Its GI50 is > 25 µM.

Q: What about the TGI [28] of the same compound?
A: Its TGI is > 25 µM.

Q: And the GI50 [29]?
A: Its GI50 is > 25 µM.

Q: What about the TGI [29] of the same compound?
A: Its TGI is > 25 µM.

Q: And the GI50 [30]?
A: The GI50 was > 19.6 µM.

Q: And the TGI [30]?
A: Its TGI is > 25 µM.

Q: And the GI50 [31]?
A: Its GI50 is > 25 µM.

Q: And the TGI [31]?
A: The TGI was > 25 µM.

Q: What about the GI50 [32] of the same compound?
A: The GI50 was > 25 µM.

Q: What about the TGI [32] of the same compound?
A: The TGI was > 25 µM.

Q: What about the GI50 [33] of the same compound?
A: Its GI50 is > 25 µM.

Q: And the TGI [33]?
A: Its TGI is > 25 µM.

Q: What about the GI50 [34] of the same compound?
A: Its GI50 is > 25 µM.

Q: What about the TGI [34] of the same compound?
A: The TGI was > 25 µM.

Q: And the GI50 [35]?
A: The GI50 was > 25 µM.

Q: And the TGI [35]?
A: The TGI was > 25 µM.

Q: What about the GI50 [36] of the same compound?
A: The GI50 was > 25 µM.

Q: What about the TGI [36] of the same compound?
A: Its TGI is > 25 µM.

Q: And the GI50 [37]?
A: The GI50 was > 25 µM.

Q: And the TGI [37]?
A: The TGI was > 25 µM.

Q: And the GI50 [38]?
A: Its GI50 is > 25 µM.

Q: What about the TGI [38] of the same compound?
A: The TGI was > 25 µM.

Q: What about the GI50 [39] of the same compound?
A: The GI50 was > 25 µM.

Q: What about the TGI [39] of the same compound?
A: The TGI was > 25 µM.

Q: What about the GI50 [40] of the same compound?
A: Its GI50 is > 25 µM.

Q: What about the TGI [40] of the same compound?
A: The TGI was > 25 µM.

Q: What about the GI50 [41] of the same compound?
A: Its GI50 is > 25 µM.

Q: What about the TGI [41] of the same compound?
A: Its TGI is > 25 µM.

Q: And the GI50 [42]?
A: The GI50 was > 22.1 µM.

Q: What about the TGI [42] of the same compound?
A: The TGI was > 25 µM.

Q: And the GI50 [43]?
A: The GI50 was > 25 µM.

Q: What about the TGI [43] of the same compound?
A: Its TGI is > 25 µM.

Q: What about the GI50 [44] of the same compound?
A: The GI50 was > 25 µM.

Q: What about the TGI [44] of the same compound?
A: Its TGI is > 25 µM.

Q: What about the GI50 [45] of the same compound?
A: Its GI50 is > 25 µM.

Q: And the TGI [45]?
A: The TGI was > 25 µM.

Q: And the GI50 [46]?
A: The GI50 was > 25 µM.

Q: What about the TGI [46] of the same compound?
A: The TGI was > 25 µM.

Q: What about the GI50 [47] of the same compound?
A: Its GI50 is > 22.9 µM.

Q: And the TGI [47]?
A: The TGI was > 25 µM.

Q: What about the GI50 [48] of the same compound?
A: Its GI50 is > 25 µM.

Q: What about the TGI [48] of the same compound?
A: Its TGI is > 25 µM.

Q: And the GI50 [49]?
A: The GI50 was 9.69 µM.

Q: And the TGI [49]?
A: The TGI was > 25 µM.

Q: What about the GI50 [50] of the same compound?
A: The GI50 was > 25 µM.

Q: And the TGI [50]?
A: Its TGI is > 25 µM.

Q: And the GI50 [51]?
A: Its GI50 is > 25 µM.

Q: And the TGI [51]?
A: The TGI was > 25 µM.

Q: And the GI50 [52]?
A: Its GI50 is > 25 µM.

Q: And the TGI [52]?
A: The TGI was > 25 µM.

Q: And the GI50 [53]?
A: The GI50 was > 25 µM.

Q: And the TGI [53]?
A: Its TGI is > 25 µM.

Q: And the GI50 [54]?
A: The GI50 was > 25 µM.

Q: And the TGI [54]?
A: Its TGI is > 25 µM.

Q: What about the GI50 [55] of the same compound?
A: The GI50 was > 25 µM.

Q: What about the TGI [55] of the same compound?
A: The TGI was > 25 µM.

Q: What about the GI50 [56] of the same compound?
A: Its GI50 is > 25 µM.

Q: What about the TGI [56] of the same compound?
A: The TGI was > 25 µM.

Q: What about the GI50 [57] of the same compound?
A: The GI50 was > 25 µM.

Q: What about the TGI [57] of the same compound?
A: Its TGI is > 25 µM.

Q: And the GI50 [58]?
A: Its GI50 is > 25 µM.

Q: What about the TGI [58] of the same compound?
A: The TGI was > 25 µM.
